Measurements reported in patent US10093683B2, “Factor XIa inhibitors” (Merck Sharp & Dohme Corp., priority 2014, dated 2018).
Read-outs that look alike come from different tables or passages of the source.

Tests used:
human Factor XIa = human Factor XIa (Homo sapiens (Human), UniProt P03951); assay: Factor XIa Assay; format: biochemical; details: read-out: FXIa Ki
Method in brief: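 Purified human FXIa (40 pM final) hydrolysing fluorogenic Z-Gly-Pro-Arg-AFC (100 μM) in 50 mM HEPES pH 7.4, 150 mM NaCl, 5 mM CaCl2, 0.1% PEG 8000, at room temperature or 37° C. Initial velocities measured after enzyme–inhibitor equilibration; Ki from Vo/Vi versus [I], assuming competitive inhibition.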

Human plasma kallikrein = Human plasma kallikrein (Homo sapiens (Human), UniProt P03952); assay: Kallikrein Assay; format: biochemical; details: purified Human plasma kallikrein 0.5 nM, Acetyl-K-P-R-AFC, pH 7.4; Ki from IC50 by Cheng Prusoff
Human plasma kallikrein, sequence (P03952 391-638): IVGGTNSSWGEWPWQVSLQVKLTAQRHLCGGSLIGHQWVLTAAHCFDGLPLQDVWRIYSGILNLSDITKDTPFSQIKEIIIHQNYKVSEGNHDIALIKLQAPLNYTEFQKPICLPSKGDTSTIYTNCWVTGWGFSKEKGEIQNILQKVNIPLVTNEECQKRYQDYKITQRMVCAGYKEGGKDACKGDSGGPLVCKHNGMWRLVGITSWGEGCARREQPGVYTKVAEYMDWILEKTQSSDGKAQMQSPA
Human plasma kallikrein, sequence (P03952 20-390 partner): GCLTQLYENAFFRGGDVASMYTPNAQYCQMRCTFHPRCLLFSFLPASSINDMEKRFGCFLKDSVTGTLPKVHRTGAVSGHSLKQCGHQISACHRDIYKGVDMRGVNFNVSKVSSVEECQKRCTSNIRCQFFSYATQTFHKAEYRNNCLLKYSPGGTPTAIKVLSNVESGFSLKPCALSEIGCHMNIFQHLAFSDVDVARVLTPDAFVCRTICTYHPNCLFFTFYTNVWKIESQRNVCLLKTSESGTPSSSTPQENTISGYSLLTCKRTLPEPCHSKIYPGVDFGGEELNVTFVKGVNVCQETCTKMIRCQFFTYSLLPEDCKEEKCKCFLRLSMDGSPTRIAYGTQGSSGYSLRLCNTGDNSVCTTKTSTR
Description: The effectiveness of a compound of the present invention as an inhibitor of Kallikrein can be determined using a relevant purified serine protease, and an appropriate synthetic substrate. The rate of hydrolysis of the chromogenic or fluorogenic substrate by the relevant serine protease was measured both in the absence and presence of compounds of the present invention. Assays were conducted at room temperature or at 37° C. […] A decrease in the rate of fluorescence change in the presence of inhibitor is indicative of enzyme inhibition. Such methods are known to one skilled in the art. The results of this assay are expressed as the inhibitory constant, Ki.
Kallikrein determinations were made in 50 mM HEPES buffer at pH 7.4 containing 150 mM NaCl, 5 mM CaCl2, and 0.1% PEG 8000 (polyethylene glycol; Fisher Scientific). Determinations were made using purified Human plasma kallikrein at a final concentration of 0.5 nM (Enzyme Research Laboratories) and the synthetic substrate, Acetyl-K-P-R-AFC (Sigma #C6608) at a concentration of […].
Times required to achieve equilibration between enzyme and inhibitor were determined in control experiments. The reactions were performed under linear progress curve conditions and fluorescence increase measured at 405 Ex/510 Em nm. […] IC50 was determined by inflection point from a four parameter logistic curve fit. Ki was calculated using the Cheng Prusoff equation, Ki=IC50/(1+([S]/Km)).

[1] = purified human Factor XIa 40 pM, Z-Gly-Pro-Arg-AFC 100 μM, pH 7.4

human Factor XIa, sequence (P03951 388-625): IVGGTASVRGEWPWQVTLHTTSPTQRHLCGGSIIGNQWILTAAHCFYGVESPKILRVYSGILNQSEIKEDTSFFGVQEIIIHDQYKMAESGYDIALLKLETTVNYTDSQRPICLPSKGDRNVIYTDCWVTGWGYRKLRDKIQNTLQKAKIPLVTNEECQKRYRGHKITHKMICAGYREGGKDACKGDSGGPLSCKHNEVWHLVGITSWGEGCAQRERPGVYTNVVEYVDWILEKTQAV
human Factor XIa, sequence (P03951 19-387 partner): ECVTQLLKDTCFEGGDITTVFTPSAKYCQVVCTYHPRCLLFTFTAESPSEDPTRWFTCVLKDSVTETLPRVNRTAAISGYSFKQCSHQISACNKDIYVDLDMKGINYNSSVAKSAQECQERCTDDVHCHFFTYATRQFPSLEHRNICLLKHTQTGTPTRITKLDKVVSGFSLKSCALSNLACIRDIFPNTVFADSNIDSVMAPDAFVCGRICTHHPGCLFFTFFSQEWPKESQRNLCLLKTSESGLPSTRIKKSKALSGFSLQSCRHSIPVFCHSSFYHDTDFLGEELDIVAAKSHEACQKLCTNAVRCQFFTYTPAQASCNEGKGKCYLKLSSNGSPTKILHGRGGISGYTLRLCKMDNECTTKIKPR

`COC(=O)Nc1ccc(C(=O)N[C@@H](Cc2ccc(C(N)=O)cc2)C(=O)N2CCC[C@@]3(C2)OC(=O)Nc2ccc(Cl)cc23)cc1` [Example 47, methyl (4-(((S)-3-(4-carbamoylphenyl)-1-((R)-6-chloro-2-oxo-1,2-dihydrospiro[benzo[d][1,3]oxazine-4,3′-piperidin]-1′-yl)-1-oxopropan-2-yl)carbamoyl)phenyl)carbamate] showed a Ki (human Factor XIa; [1]) of 0.55 nM and a Ki (Human plasma kallikrein) of less than 1.3 nM.

`COC(=O)NCc1ccc(C(=O)N[C@@H](Cc2ccccc2)C(=O)N2CCC[C@@]3(C2)OC(=O)Nc2ccc(Cl)c(F)c23)cc1` [Example 241, methyl (4-(((S)-1-((R)-6-chloro-5-fluoro-2-oxo-1,2-dihydrospiro[benzo[d][1,3]oxazine-4,3′-piperidin]-1′-yl)-1-oxo-3-phenylpropan-2-yl)carbamoyl)benzyl)carbamate] gave a Ki (human Factor XIa) of 53.9 nM and a Ki (Human plasma kallikrein) of 2.13 nM.

Work on `Nc1noc2cc(C(=O)N[C@@H](Cc3ccccc3)C(=O)N3CC[C@@]4(C3)OC(=O)Nc3ccc(Cl)cc34)ccc12` [Example 217] yielded a Ki (human Factor XIa) of 2.3 nM and a Ki (Human plasma kallikrein) of 3.2 nM.

With `CNc1cc(C(=O)N[C@@H](Cc2ccccc2)C(=O)N2CCC[C@@]3(C2)OC(=O)Nc2ccc(Cl)cc23)ccn1` [Example 206] the Ki (human Factor XIa) was 14.5 nM and the Ki (Human plasma kallikrein) was 1.7 nM.

With `COC(=O)Nc1ccc(C(=O)N[C@@H](CC(=O)N2CC(OC)C2)C(=O)N2CCC[C@@]3(C2)OC(=O)Nc2ccc(Cl)cc23)cc1` [Example 97, methyl (4-(((S)-1-((R)-6-chloro-2-oxo-1,2-dihydrospiro[benzo[d][1,3]oxazine-4,3′-piperidin]-1′-yl)-4-(3-methoxyazetidin-1-yl)-1,4-dioxobutan-2-yl)carbamoyl)phenyl)carbamate] the Ki (human Factor XIa; [1]) was 51.1 nM and the Ki (Human plasma kallikrein) was 15.3 nM.

In the case of `COC(=O)Nc1ccc(C(=O)N[C@@H](CC(C)O)C(=O)N2CCC3(C2)OC(=O)Nc2ccc(Cl)cc23)cc1` (stereo partly drawn) [Example 110, methyl (4-(((2S)-1-((R)-6-chloro-2-oxo-1,2-dihydrospiro[benzo[d][1,3]oxazine-4,3′-pyrrolidin]-1′-yl)-4-hydroxy-1-oxopentan-2-yl)carbamoyl)phenyl)carbamate], the Ki (human Factor XIa; [1]) is reported as 52 nM and the Ki (Human plasma kallikrein) is reported as 147 nM.

`Nc1n[nH]c2cc(C(=O)N[C@@H](CC3CC3)C(=O)N3CCC[C@@]4(C3)OC(=O)Nc3ccc(Cl)c(F)c34)ccc12` [Example 254] gave a Ki (human Factor XIa) of 2.11 nM and a Ki (Human plasma kallikrein) of 0.83 nM.

For `COC(=O)Nc1ccc(C(=O)N[C@@H](Cc2ccccc2)C(=O)N2CCC[C@@]3(C2)OC(=O)Nc2ccc(OC)cc23)cc1` [Example 9, methyl (4-(((S)-1-((R)-6-methoxy-2-oxo-1,2-dihydrospiro[benzo[d][1,3]oxazine-4,3′-piperidin]-1′-yl)-1-oxo-3-phenylpropan-2-yl)carbamoyl)phenyl)carbamate], the Ki (human Factor XIa; [1]) was 2 nM and the Ki (Human plasma kallikrein) was 2.6 nM.

`Nc1nc2ccc(C(=O)N[C@@H](Cc3ccccc3)C(=O)N3CCC4(C3)OC(=O)Nc3ccc(Cl)cc34)cc2s1` (some centres unmarked) [Example 181] was tested, and the Ki (human Factor XIa) was 18.7 nM and the Ki (Human plasma kallikrein) was 50.7 nM.

With `O=C(Nc1ccc(C(=O)N[C@@H](Cc2ccccc2)C(=O)N2CCC3(C2)OC(=O)Nc2ccc(Cl)cc23)cc1)OC[C@@H]1CCCO1` (stereo partly drawn) [Example 194, ((S)-tetrahydrofuran-2-yl)methyl (4-(((2S)-1-(6-chloro-2-oxo-1,2-dihydrospiro[benzo[d][1,3]oxazine-4,3′-pyrrolidin]-1′-yl)-1-oxo-3-phenylpropan-2-yl)carbamoyl)phenyl)carbamate] the Ki (human Factor XIa) was 5.48 nM and the Ki (Human plasma kallikrein) was 30.9 nM.

`COC(=O)Nc1ccc(C(=O)N[C@@H](Cc2cc(C3CC3)no2)C(=O)N2CC[C@@]3(C2)OC(=O)Nc2ccc(Cl)cc23)cc1` [Example 84, methyl (4-(((S)-1-((R)-6-chloro-2-oxo-1,2-dihydrospiro[benzo[d][1,3]oxazine-4,3′-pyrrolidin]-1′-yl)-3-(3-cyclopropylisoxazol-5-yl)-1-oxopropan-2-yl)carbamoyl)phenyl)carbamate] gave a Ki (human Factor XIa; [1]) of 28.1 nM and a Ki (Human plasma kallikrein) of 28.4 nM.

With `O=C1Nc2ccc(Cl)c(F)c2[C@@]2(CCCN(C(=O)[C@H](CC3CC3)NC(=O)c3ccc4[nH]c(=O)[nH]c4c3)C2)O1` [Example 213] the Ki (human Factor XIa) was 10.4 nM and the Ki (Human plasma kallikrein) was 0.54 nM.

`Nc1n[nH]c2cc(C(=O)N[C@@H](Cc3ccccc3)C(=O)N3CC[C@@]4(C3)OC(=O)Nc3ccc(Cl)c(F)c34)ccc12` [Example 195] showed a Ki (human Factor XIa) of 1 nM and a Ki (Human plasma kallikrein) of 1.9 nM.

`COC(=O)Nc1ccc(C(=O)N[C@@H](Cc2ccccc2)C(=O)N2CCC[C@@]3(C2)OC(=O)Nc2ccc(F)cc23)cc1` [Example 8a, methyl (4-(((S)-1-((R)-6-fluoro-2-oxo-1,2-dihydrospiro[benzo[d][1,3]oxazine-4,3′-piperidin]-1′-yl)-1-oxo-3-phenylpropan-2-yl)carbamoyl)phenyl)carbamate] was tested, and the Ki (human Factor XIa; [1]) was 12.8 nM and the Ki (Human plasma kallikrein) was 9.78 nM.

For `O=C1Nc2ccc(Cl)c(F)c2[C@@]2(CCCN(C(=O)[C@H](Cc3ccccc3)NC(=O)c3ccc(-c4ncc[nH]4)s3)C2)O1` [Example 235], the Ki (human Factor XIa) was 1.26 nM and the Ki (Human plasma kallikrein) was 0.87 nM.

`COC(=O)Nc1cnc(C(=O)N[C@@H](Cc2ccccc2)C(=O)N2CCC[C@@]3(C2)OC(=O)Nc2ccc(Cl)c(F)c23)nc1` [Example 234] showed a Ki (human Factor XIa) of 16.9 nM and a Ki (Human plasma kallikrein) of 3.03 nM.

`O=C1Nc2ccc(Cl)c(F)c2[C@@]2(CCCN(C(=O)[C@H](CC3CC3)NC(=O)c3cc4cc(O)ccc4[nH]3)C2)O1` [Example 216] showed a Ki (human Factor XIa) of 37.6 nM and a Ki (Human plasma kallikrein) of 1.7 nM.

`O=C1Nc2ccc(Cl)cc2[C@@]2(CCN(C(=O)[C@H](Cc3ccccc3)NC(=O)c3ccc4[nH]c(=O)[nH]c(=O)c4c3)C2)O1` [Example 228] showed a Ki (human Factor XIa) of 17.1 nM and a Ki (Human plasma kallikrein) of 19.3 nM.

In the case of `O=C1Nc2ccc(Cl)c(F)c2[C@@]2(CCCN(C(=O)[C@H](Cc3ccccc3)NC(=O)c3ccc4[nH]c(=O)cc(O)c4c3)C2)O1` [Example 209], the Ki (human Factor XIa) is reported as 0.11 nM and the Ki (Human plasma kallikrein) is reported as 0.33 nM.

`O=C(Nc1ccc(C(=O)N[C@@H](Cc2ccccc2)C(=O)N2CCC3(C2)OC(=O)Nc2ccc(Cl)cc23)cc1)OCCN1CCOCC1` (stereo partly drawn) [Example 191, 2-morpholinoethyl (4-(((2S)-1-(6-chloro-2-oxo-1,2-dihydrospiro[benzo[d][1,3]oxazine-4,3′-pyrrolidin]-1′-yl)-1-oxo-3-phenylpropan-2-yl)carbamoyl)phenyl)carbamate] showed a Ki (human Factor XIa) of 33.5 nM and a Ki (Human plasma kallikrein) of 123 nM.

Work on `COC(=O)Nc1ccc(C(=O)N[C@@H](CC2(OC)CC2)C(=O)N2CCC[C@@]3(C2)OC(=O)Nc2ccc(Cl)c(F)c23)cc1` [Example 115, methyl (4-(((S)-1-((R)-6-chloro-5-fluoro-2-oxo-1,2-dihydrospiro[benzo[d][1,3]oxazine-4,3′-piperidin]-1′-yl)-3-(1-methoxycyclopropyl)-1-oxopropan-2-yl)carbamoyl)phenyl)carbamate] yielded a Ki (Human plasma kallikrein) of 0.6 nM.

For `COC(=O)Nc1ccc(C(=O)N[C@@H](C[C@H](C)OC)C(=O)N2CCC[C@@]3(C2)OC(=O)Nc2ccc(Cl)c(F)c23)cc1` [Example 118A, methyl (4-(((2S,4S)-1-((R)-6-chloro-5-fluoro-2-oxo-1,2-dihydrospiro[benzo[d][1,3]oxazine-4,3′-piperidin]-1′-yl)-4-methoxy-1-oxopentan-2-yl)carbamoyl)phenyl)carbamate], the Ki (Human plasma kallikrein) was 1.79 nM.

Work on `O=C(Nc1ccc(C(=O)N[C@@H](Cc2cccc(F)c2)C(=O)N2CCC[C@@]3(C2)OC(=O)Nc2ccc(Cl)c(F)c23)cc1)OCCP(=O)(O)O` [Example 271, (2-(((4-(((S)-1-((R)-6-chloro-5-fluoro-2-oxo-1,2-dihydrospiro[benzo[d][1,3]oxazine-4,3′-piperidin]-1′-yl)-3-(3-fluorophenyl)-1-oxopropan-2-yl)carbamoyl)phenyl)carbamoyl)oxy)ethyl)phosphonic acid] yielded a Ki (Human plasma kallikrein) of 0.6 nM.

With `COC(=O)Nc1ccc(C(=O)N[C@@H](C[C@@H](C)OC)C(=O)N2CCC[C@@]3(C2)OC(=O)Nc2ccc(Cl)c(F)c23)cc1` [Example 118B, methyl (4-(((2S,4R)-1-((R)-6-chloro-5-fluoro-2-oxo-1,2-dihydrospiro[benzo[d][1,3]oxazine-4,3′-piperidin]-1′-yl)-4-methoxy-1-oxopentan-2-yl)carbamoyl)phenyl)carbamate] the Ki (Human plasma kallikrein) was 1.06 nM.

With `O=C1Nc2ccc(Cl)cc2C2(CCN(C(=O)[C@H](Cc3ccccc3)NC(=O)c3ccc4oc(=O)[nH]c4c3)C2)O1` (some centres unmarked) [Example 183] the Ki (human Factor XIa) was 86.9 nM.

Molecule `COC(=O)Nc1ccc(C(=O)N[C@@H](Cc2ccccc2)C(=O)N2CCC3(C2)OC(=O)Nc2ccc(Cl)cc23)s1` (stereo partly drawn) [Example 196, Methyl (5-(((2S)-1-(6-chloro-2-oxo-1,2-dihydrospiro[benzo[d][1,3]oxazine-4,3′-pyrrolidin]-1′-yl)-1-oxo-3-phenylpropan-2-yl)carbamoyl)thiophen-2-yl)carbamate] has a Ki (human Factor XIa) of 63.4 nM.

With `Cc1nc(N)sc1C(=O)N[C@@H](Cc1ccccc1)C(=O)N1CCC2(C1)OC(=O)Nc1ccc(Cl)cc12` (some centres unmarked) [Example 170] the Ki (human Factor XIa) was 508 nM.
